This data set can be described thus: Toxicology tests, oral LD50. To be noted: rat, in vivo, rats.

What is called LD50 is the dose at which mortality reaches 50%. Take `CC(C(C)C(C)(C)C)C(C)C1(C)CO1` (stereo not shown) [2-methyl-2-(1,2,3,4,4-pentamethylpentyl)oxirane]: the LD50 was more than 2000 mg/kg.
